Source: patent US4088772A, “Methanodibenzocycloheptapyrroles” (E. I. Du Pont de Nemours and Company, priority 1975, dated 1978)
Like-named read-outs stand apart in the source and are kept apart here.

How the values were obtained:
in vivo = conditions: mouse, in vivo, po
Holzman male white rats = test: Rat approach-avoidance test (anti-anxiety); type: in vivo, rat (Holzman male white); conditions: for ED50: Rattus norvegicus; for anti-anxiety activity: in words
Experimental: Potential as anti-anxiety agents was assessed by means of the potency of these compounds in the rat approach-avoidance test.
Approach-Avoidance Test Method
18 hr. waterdeprived Holzman male white rats, 150-175 g each, were used. The apparatus consists of two interconnected chambers, the first in which the animal is placed, and a second which contains the stimulus and a water bottle. The second is fitted with an electrifiable floor. On the first day, the rats are placed in the first chamber. They are allowed three minutes to find the water bottle in the second chamber and to drink water for at least two seconds. After three successful trials on the first day the animals are given one predrug trial on the second day. Then follows a second predrug trial during which the floor of the second chamber is electrified 1.5 seconds after the rat has commenced drinking water. The animals are randomized, dosed orally, and reexposed to the test situation at 1, 2, or 4 hours after the shock trial.

female CF1 S mice = test: Mouse spontaneous motor activity (activity cage); type: in vivo, mouse (CF1 S female); conditions: 0.5 h, read-out: Exploratory Loss Activity Cage ED50
Experimental: Mouse Spontaneous Motor Activity (Activity Cage)
Twenty-four per dose, 16- 20 g or 18-22 g, female CF1 S mice, fasted 16- 22 hours, are intubated (in pairs) with drug at t doses such as 0, 1, 3, 9, 27 and 81 mg/kg in 10 ml/kg of aqueous 1% methylcellulose. The mice are then put in separate "shoe-box" cages (12 × 7.5 × 5.3 inches plastic with a 0.33 inch mesh stainless steel lid), and 20 minutes after intubation the animals in pairs are moved to covered Woodard Photoelectric Activity Chambers (central light source type measurement floor area = 96 in^2). Ten minutes later (30 minutes after dosing) a 5-minute count is taken. Counting chamber characteristics are balanced out by counting 2 pairs of mice from each dose level in each of 6 different counting chambers. Half of each test is run in the a.m. and the other half is run in the p.m. to minimize "biological clock" variations.
Canad. Biol. 20, 239-50 (1961), raw counts are thus transformed for statistical treatment (Student's t test). The means of the square roots then are squared and an ED50 for stimulation or depression (or both) is determined graphically.

[1] = tested on: phenylquinone-induced writhing; test: Phenylquinone writhing test (analgesia); type: in vivo, mouse (Carworth CF1 S female); conditions: Mus musculus
Excerpt: This mouse test is predictive of analgesic response in humans. [E. Siegmund, R. Cadmus and G. Lee, Proc. Soc.
ED50 values were obtained graphically from the data.

female white mice = test: animal or person; conditions: Mus musculus, po
[2] = read-out: Catatonia ED50, Table 1, oral, mice
[3] = read-out: Exploratory Loss Visual ED50, Table 1, oral, mice
[4] = read-out: Muscle Tone ED50, Table 1, oral, mice
[5] = read-out: Ptosis ED50, Table 1, Extrapolated value
[6] = read-out: Reflexes Lift ED50, Table 1, oral, mice
[7] = read-out: Reflexes Pinna ED50, Table 1, oral, mice
[8] = 0.3 mg/kg oral, 4 hrs, N=10 rats
[9] = Table II, oral, rats, 4 hrs, read-out: ED50
[10] = Table 1, oral, mice, 30 minutes after dosing
[11] = read-out: Ptosis ED50, Table 1, oral, mice
[12] = read-out: Reflexes Grip ED50, Table 1, oral, mice

Row | SMILES | anti-anxiety activity (Holzman male white rats) | ED50 (female CF1 S mice; po) | ED50 ([1]; po, Table 1, mice) | ED50 (female white mice; [2]) | ED50 (female white mice; [3]) | ED50 (female white mice; [4]) | ED50 (female white mice; [6]) | ED50 (female white mice; [7]) | ED50 (in vivo) | LD50 at 24 h (in vivo) | ED50 (female CF1 S mice; [10]) | ED50 (female white mice; [11]) | ED50 (female white mice; [12]) | other results
1 | CN1C(=O)CN=C(c2ccccc2)c2cc(Cl)ccc21 [Diazepam, reference compound] | active in this test | 2 mg/kg | – | – | – | – | – | – | – | – | – | – | – | ED50 (in vivo; Tremors ED50, Table 1, mice): > 324 mg/kg; No. of Responders (Holzman male white rats; 1 mg/kg oral, 1 hr, N=6 rats): 0; No. of Responders (Holzman male white rats; 3 mg/kg oral, 1 hr, N=6 rats): 2; No. of Responders (Holzman male white rats; 10 mg/kg oral, 1 hr, N=6 rats): 5; ED50 (Holzman male white rats; po, 1 h): 6 mg/kg
2 | c1ccc2c(c1)C1CC3(CN(CC4CCCCC4)CC23)c2ccccc21 (stereo not shown) [Example 25, 2-Cyclohexylmethyl-2,3,8,12b-tetrahydro-1H-3a,8-methanodibenzo[3,4:6,7]cyclohepta[1,2-c]pyrrole] | potent anti-anxiety or minor tranquilizer activity | – | 6.4 mg/kg | 9 mg/kg | 9 mg/kg | 8 mg/kg | 8 mg/kg | 7 mg/kg | 450 mg/kg | 320 mg/kg | 4.7 mg/kg | – | – | ED50 (female white mice; [5]): 3 mg/kg; ED50 (female white mice; read-out: Reflexes Grip ED50, Table 1, Extrapolated value): 450 mg/kg; No. of Responders (Holzman male white rats; 0.1 mg/kg oral, 4 hrs, N=10 rats): 1; No. of Responders (Holzman male white rats; [8]): 2; No. of Responders (Holzman male white rats; 1.0 mg/kg oral, 4 hrs, N=8 rats): 5; ED50 (Holzman male white rats; [9]): 0.5 mg/kg
3 | CN(C)CCCN1c2ccccc2Sc2ccc(Cl)cc21 [Chlopromazine, Chlorpromazine, reference compound] | not active at non-sedating doses | 7.3 mg/kg | – | – | – | – | – | – | – | – | – | – | – | ED50 (in vivo; Tremors ED50): > 324 mg/kg
4 | c1ccc2c(c1)[C@@H]1C[C@@]3(CN(CC4CCC4)C[C@H]23)c2ccccc21 (relative stereo) [Example 19, 2-Cyclobutylmethyl-2,3,8,12b-tetrahydro-1H-3a,8-methanodibenzo[3,4:6,7]cyclohepta[1,2-c]pyrrole] | – | 1 mg/kg | – | 20 mg/kg | 20 mg/kg | 12 mg/kg | 20 mg/kg | 12 mg/kg | – | > 324 mg/kg | – | 7 mg/kg | 200 mg/kg | ED50 ([1]; Table 1, oral, mice): 5 mg/kg; ED50 (in vivo; Tremors ED50, Table 1, mice): > 324 mg/kg
5 | C1=CCC(CN2CC3c4ccccc4C4CC3(C2)c2ccccc24)CC1 (stereo not shown) [Example 27, 2-(3-Cyclohexenylmethyl)-2,3,8,12b-tetrahydro-1H-3a,8-methanodibenzo[3,4:6,7]cyclohepta[1,2-c]pyrrole] | – | – | 4.2 mg/kg | 4.5 mg/kg | 4.5 mg/kg | 4.5 mg/kg | 9 mg/kg | 8 mg/kg | > 324 mg/kg | > 324 mg/kg | 0.29 mg/kg | 2.9 mg/kg | 97 mg/kg | –
6 | c1ccc2c(c1)C1CC3(CN(CC4CCCC4)CC23)c2ccccc21 (stereo not shown) [Example 7, 2-Cyclopentylmethyl-2,3,8,12b-tetrahydro-1H-3a,8-methanodibenzo[3,4:6,7]cyclohepta[1,2-c]pyrrole] | potent anti-anxiety or minor tranquilizer activity | – | 2 mg/kg | 8 mg/kg | 7 mg/kg | 7 mg/kg | 11 mg/kg | 9 mg/kg | > 324 mg/kg | > 324 mg/kg | 0.66 mg/kg | – | 210 mg/kg | ED50 (female white mice; [5]): 3 mg/kg; No. of Responders (Holzman male white rats; 0.03 mg/kg oral, 4 hrs, N=10 rats): 1; No. of Responders (Holzman male white rats; 0.1 mg/kg oral, 4 hrs, N=20 rats): 7; No. of Responders (Holzman male white rats; [8]): 6; ED50 (Holzman male white rats; [9]): 0.2 mg/kg
7 | CCCCCCCN1CC2c3ccccc3C3CC2(C1)c1ccccc13 (stereo not shown) [Example 15, 2-n-Heptyl-2,3,8,12b-tetrahydro-1H-3a,8-methanodibenzo[3,4:6,7]cyclohepta[1,2-c]pyrrole] | – | – | 3.6 mg/kg | 5 mg/kg | – | – | 9 mg/kg | – | > 324 mg/kg | > 324 mg/kg | 1 mg/kg | < 3 mg/kg | 260 mg/kg | ED50 (female white mice; read-out: Exploratory Loss Visual ED50, Table 1, Extrapolated value): 3.2 mg/kg; ED50 (female white mice; read-out: Muscle Tone ED50, Table 1, Extrapolated value): 3 mg/kg
8 | CCCCCCN1CC2c3ccccc3C3CC2(C1)c1ccccc13 (stereo not shown) [Example 14, 2-n-Hexyl-2,3,8,12 b-tetrahydro-1H-3a,8-methanodibenzo[3,4:6,7]cyclohepta[1,2-c]pyrrole] | – | – | 2.6 mg/kg | 5.6 mg/kg | 7 mg/kg | 4.1 mg/kg | 8.6 mg/kg | 11 mg/kg | 326 mg/kg | > 324 mg/kg | 1.3 mg/kg | 4.5 mg/kg | 187 mg/kg | –
